Our source for the EC50 values is BindingDB's records for doi:10.1021/acs.jmedchem.9b00882 (Shenyang Pharmaceutical University, 2019).

Starred links: 1 amine or outer side, 2 acyl side, 3 side chain; linkers in the order of their positions; H or OH if unused. Positions of bridges follow the written chain, without caps; N, C: chain ends. Non-standard residues stand in square brackets, D forms with d. Residues, ends and D or L forms follow the SMILES beside them. ξ: configuration not given here. mXylylene = c1cc(C[*:1])cc(C[*:2])c1; ξhCys = NC(CCS)C(=O)O

Test [1] is described as follows: Inhibition of HIV1 gp41-induced cell-cell fusion between viral envelope expressing human HL2/3 cells to CD4/CCR5 receptor expressing TZM-bl cells after 6 hrs by luciferase assay.
Test [2] can be described thus: Inhibition of HIV1 gp41-induced cell-cell fusion between viral envelope expressing human HL2/3 cells to CD4/CCR5 receptor expressing TZM-bl cells at 4:1 ratio of hCS6ERE to compound incubated for 6 hrs by luciferase reporter gene assay. A general note: In a reporter assay the amount or activity of a reporter protein is the signal.
Test [3] in a line: Inhibition of HIV1 gp41-induced cell-cell fusion between viral envelope expressing human HL2/3 cells to CD4/CCR5 receptor expressing TZM-bl cells at 2:1 ratio of hCS6ERE to compound incubated for 6 hrs by luciferase reporter gene assay.
Test [4] can be described thus: Inhibition of HIV1 gp41-induced cell-cell fusion between viral envelope expressing human HL2/3 cells to CD4/CCR5 receptor expressing TZM-bl cells at 1:1 ratio of hCS6ERE to compound incubated for 6 hrs by luciferase reporter gene assay.
Test [5] addresses Envelope glycoprotein gp160 (Human immunodeficiency virus 1, UniProt Q6QLK5). Description: Inhibition of HIV1 gp41-induced cell-cell fusion between viral envelope expressing human HL2/3 cells to CD4/CCR5 receptor expressing TZM-bl cells after 6 hrs by luciferase assay.
Test [6] is described as follows: Inhibition of HIV1 gp41-induced cell-cell fusion between viral envelope expressing human HL2/3 cells to CD4/CCR5 receptor expressing TZM-bl cells at 4:1 compound to HP23 ratio incubated for 6 hrs by luciferase reporter gene assay.

Sequence of Envelope glycoprotein gp160 (Q6QLK5 whole entry, the tested form may be a part): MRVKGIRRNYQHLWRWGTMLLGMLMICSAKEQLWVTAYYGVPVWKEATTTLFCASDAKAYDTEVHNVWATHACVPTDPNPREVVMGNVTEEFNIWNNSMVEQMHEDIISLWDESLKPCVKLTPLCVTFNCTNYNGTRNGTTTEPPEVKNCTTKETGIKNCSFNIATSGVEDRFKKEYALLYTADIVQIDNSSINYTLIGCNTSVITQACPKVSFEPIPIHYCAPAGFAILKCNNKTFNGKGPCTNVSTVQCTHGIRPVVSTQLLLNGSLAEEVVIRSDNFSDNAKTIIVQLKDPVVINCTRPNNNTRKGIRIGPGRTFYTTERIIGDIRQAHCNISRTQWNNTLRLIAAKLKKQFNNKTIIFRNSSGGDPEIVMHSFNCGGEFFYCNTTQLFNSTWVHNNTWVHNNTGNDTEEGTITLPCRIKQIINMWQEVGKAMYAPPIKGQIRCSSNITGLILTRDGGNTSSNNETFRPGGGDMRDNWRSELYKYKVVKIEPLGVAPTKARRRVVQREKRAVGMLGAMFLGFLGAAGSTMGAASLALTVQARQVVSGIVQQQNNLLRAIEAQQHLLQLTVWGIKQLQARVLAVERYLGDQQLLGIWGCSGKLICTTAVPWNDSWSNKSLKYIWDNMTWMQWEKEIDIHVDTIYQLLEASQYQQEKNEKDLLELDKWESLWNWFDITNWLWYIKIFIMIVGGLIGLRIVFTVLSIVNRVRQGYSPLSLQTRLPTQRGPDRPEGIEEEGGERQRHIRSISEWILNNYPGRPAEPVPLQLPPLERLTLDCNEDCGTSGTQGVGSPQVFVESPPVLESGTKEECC

Take `CC[C@H](C)[C@H](NC(C)=O)C(=O)N[C@@H](CCC(=O)O)C(=O)N[C@@H](C)C(=O)N[C@@H](CC(C)C)C(=O)N[C@H](C(=O)NC1CCSCc2cccc(c2)CSCCC(C(=O)N[C@@H](CCC(N)=O)C(=O)N[C@@H](CCC(N)=O)C(=O)N[C@@H](CCC(=O)O)C(=O)N[C@@H](CCCCN)C(=O)N[C@@H](CC(N)=O)C(=O)N[C@@H](CCC(=O)O)C(=O)N[C@@H](C)C(=O)N[C@@H](C)C(=O)N[C@@H](CC(C)C)C(=O)N[C@@H](CCCNC(=N)N)C(=O)N[C@@H](CCC(=O)O)C(=O)N[C@@H](CC(C)C)C(N)=O)NC(=O)[C@H](CCC(N)=O)NC(=O)[C@H](C)NC(=O)[C@H](C)NC1=O)[C@@H](C)CC` (some centres not stated) (Ac-IEALI[ξhCys]AAQ[ξhCys]QQEKNEAALREL-NH2; linker 6-10 via mXylylene): the concentration giving a half-maximal response (EC50) (as a rule, the concentration at which the effect is half-maximal) in test [1] came to 34 nM.
Same read-out and setting: the figure for `CC[C@H](C)[C@H](NC(C)=O)C(=O)N[C@@H](CCC(=O)O)C(=O)N[C@@H](C)C(=O)N[C@@H](CC(C)C)C(=O)N[C@H](C(=O)N[C@@H](CCCNC(=N)N)C(=O)N[C@@H](C)C(=O)N[C@@H](C)C(=O)N[C@@H](CCC(N)=O)C(=O)N[C@H]1CSCc2cccc(c2)CSC[C@@H](C(=O)N[C@@H](CC(N)=O)C(=O)N[C@@H](CCC(=O)O)C(=O)N[C@@H](C)C(=O)N[C@@H](C)C(=O)N[C@@H](CC(C)C)C(=O)N[C@@H](CCCNC(=N)N)C(=O)N[C@@H](CCC(=O)O)C(=O)N[C@@H](CC(C)C)C(N)=O)NC(=O)[C@H](CCC(=O)O)NC(=O)[C@H](CCC(N)=O)NC(=O)[C@H](CCC(N)=O)NC1=O)[C@@H](C)CC` (Ac-IEALIRAAQCQQECNEAALREL-NH2; linker 10-14 via mXylylene) is 171 nM.
The same measure, in the same setting: the figure for `CC[C@H](C)[C@H](NC(C)=O)C(=O)N[C@@H](CCC(=O)O)C(=O)N[C@@H](C)C(=O)N[C@@H](CC(C)C)C(=O)N[C@H](C(=O)N[C@H]1CSCc2cccc(c2)CSC[C@@H](C(=O)N[C@@H](CCC(N)=O)C(=O)N[C@@H](CCC(N)=O)C(=O)N[C@@H](CCC(=O)O)C(=O)N[C@@H](CCCCN)C(=O)N[C@@H](CC(N)=O)C(=O)N[C@@H](CCC(=O)O)C(=O)N[C@@H](C)C(=O)N[C@@H](C)C(=O)N[C@@H](CC(C)C)C(=O)N[C@@H](CCCNC(=N)N)C(=O)N[C@@H](CCC(=O)O)C(=O)N[C@@H](CC(C)C)C(N)=O)NC(=O)[C@H](CCC(N)=O)NC(=O)[C@H](C)NC(=O)[C@H](C)NC1=O)[C@@H](C)CC` (Ac-IEALICAAQCQQEKNEAALREL-NH2; linker 6-10 via mXylylene) is 96 nM; for `CC[C@H](C)[C@H](NC(C)=O)C(=O)N[C@@H](CCC(=O)O)C(=O)N[C@@H](C)C(=O)N[C@@H](CC(C)C)C(=O)N[C@H](C(=O)N[C@@H](CCCNC(=N)N)C(=O)N[C@@H](C)C(=O)N[C@@H](C)C(=O)N[C@@H](CCC(N)=O)C(=O)N[C@@H](CCC(=O)O)C(=O)N[C@@H](CCC(N)=O)C(=O)N[C@@H](CCC(N)=O)C(=O)N[C@H]1CSCc2cccc(c2)CSC[C@@H](C(=O)N[C@@H](C)C(=O)N[C@@H](CC(C)C)C(=O)N[C@@H](CCCNC(=N)N)C(=O)N[C@@H](CCC(=O)O)C(=O)N[C@@H](CC(C)C)C(N)=O)NC(=O)[C@H](CCC(=O)O)NC(=O)[C@H](CC(N)=O)NC(=O)[C@H](CCCCN)NC1=O)[C@@H](C)CC` (Ac-IEALIRAAQEQQCKNECALREL-NH2; linker 13-17 via mXylylene) it is 132 nM.
Still for that read-out and setting: with Ac-IEALIRAAQEQQEKNEAALREL-NH2 the figure was 127 nM; with `CC[C@H](C)[C@H](NC(C)=O)C(=O)N[C@@H](CCC(=O)O)C(=O)N[C@@H](C)C(=O)N[C@@H](CC(C)C)C(=O)N[C@H](C(=O)N[C@@H](CCCNC(=N)N)C(=O)N[C@@H](C)C(=O)N[C@@H](C)C(=O)N[C@H]1CSCc2cccc(c2)CSC[C@@H](C(=O)N[C@@H](CCCCN)C(=O)N[C@@H](CC(N)=O)C(=O)N[C@@H](CCC(=O)O)C(=O)N[C@@H](C)C(=O)N[C@@H](C)C(=O)N[C@@H](CC(C)C)C(=O)N[C@@H](CCCNC(=N)N)C(=O)N[C@@H](CCC(=O)O)C(=O)N[C@@H](CC(C)C)C(N)=O)NC(=O)[C@H](CCC(N)=O)NC(=O)[C@H](CCC(N)=O)NC(=O)[C@H](CCC(=O)O)NC1=O)[C@@H](C)CC` (Ac-IEALIRAACEQQCKNEAALREL-NH2; linker 9-13 via mXylylene), 214 nM.
For `CC[C@H](C)[C@H](NC(C)=O)C(=O)N[C@@H](CCC(=O)O)C(=O)N[C@@H](C)C(=O)N[C@@H](CC(C)C)C(=O)N[C@H](C(=O)N[C@@H](CCCNC(=N)N)C(=O)N[C@@H](C)C(=O)N[C@@H](C)C(=O)N[C@@H](CCC(N)=O)C(=O)N[C@@H](CCC(=O)O)C(=O)N[C@@H](CCC(N)=O)C(=O)N[C@@H](CCC(N)=O)C(=O)N[C@@H](CCC(=O)O)C(=O)N[C@@H](CCCCN)C(=O)N[C@@H](CC(N)=O)C(=O)N[C@@H](CCC(=O)O)C(=O)N[C@H]1CSCc2cccc(c2)CSC[C@@H](C(=O)N[C@@H](CC(C)C)C(N)=O)NC(=O)[C@H](CCCNC(=N)N)NC(=O)[C@H](CC(C)C)NC(=O)[C@H](C)NC1=O)[C@@H](C)CC` (Ac-IEALIRAAQEQQEKNECALRCL-NH2; linker 17-21 via mXylylene), the EC50 in test [1] was found to be 123 nM.
Take `CC[C@H](C)[C@H](NC(C)=O)C(=O)N[C@H]1CSCc2cccc(c2)CSC[C@@H](C(=O)N[C@@H](C)C(=O)N[C@@H](C)C(=O)N[C@@H](CCC(N)=O)C(=O)N[C@@H](CCC(=O)O)C(=O)N[C@@H](CCC(N)=O)C(=O)N[C@@H](CCC(N)=O)C(=O)N[C@@H](CCC(=O)O)C(=O)N[C@@H](CCCCN)C(=O)N[C@@H](CC(N)=O)C(=O)N[C@@H](CCC(=O)O)C(=O)N[C@@H](C)C(=O)N[C@@H](C)C(=O)N[C@@H](CC(C)C)C(=O)N[C@@H](CCCNC(=N)N)C(=O)N[C@@H](CCC(=O)O)C(=O)N[C@@H](CC(C)C)C(N)=O)NC(=O)[C@H]([C@@H](C)CC)NC(=O)[C@H](CC(C)C)NC(=O)[C@H](C)NC1=O` (Ac-ICALICAAQEQQEKNEAALREL-NH2; linker 2-6 via mXylylene): a half-maximal effect in test [1] (EC50) was put at 147 nM.
On the same count and under the same terms, the figure for `CC[C@H](C)[C@H](NC(C)=O)C(=O)N[C@@H](CCC(=O)O)C(=O)N[C@@H](C)C(=O)N[C@@H](CC(C)C)C(=O)N[C@H](C(=O)N[C@@H](CCCNC(=N)N)C(=O)N[C@@H](C)C(=O)N[C@@H](C)C(=O)N[C@@H](CCC(N)=O)C(=O)N[C@@H](CCC(=O)O)C(=O)N[C@@H](CCC(N)=O)C(=O)N[C@@H](CCC(N)=O)C(=O)N[C@@H](CCC(=O)O)C(=O)N[C@@H](CCCCN)C(=O)N[C@@H](CC(N)=O)C(=O)N[C@H]1CSCc2cccc(c2)CSC[C@@H](C(=O)N[C@@H](CCC(=O)O)C(=O)N[C@@H](CC(C)C)C(N)=O)NC(=O)[C@H](CC(C)C)NC(=O)[C@H](C)NC(=O)[C@H](C)NC1=O)[C@@H](C)CC` (Ac-IEALIRAAQEQQEKNCAALCEL-NH2; linker 16-20 via mXylylene) is 166 nM; for `CC[C@H](C)[C@H](NC(C)=O)C(=O)N[C@@H](CCC(=O)O)C(=O)N[C@@H](C)C(=O)N[C@@H](CC(C)C)C(=O)N[C@H](C(=O)NC1CCSCc2cccc(c2)CSCCC(C(=O)N[C@@H](CCC(N)=O)C(=O)N[C@@H](CCC(N)=O)C(=O)N[C@@H](CCCNC(=N)N)C(=O)N[C@@H](CCCCN)C(=O)N[C@@H](CC(N)=O)C(=O)N[C@@H](CCC(=O)O)C(=O)N[C@@H](CCC(=O)O)C(=O)N[C@@H](C)C(=O)N[C@@H](CC(C)C)C(=O)N[C@@H](CCCNC(=N)N)C(=O)N[C@@H](CCC(=O)O)C(=O)N[C@@H](CC(C)C)C(N)=O)NC(=O)[C@H](CCC(N)=O)NC(=O)[C@H](C)NC(=O)[C@H](C)NC1=O)[C@@H](C)CC` (some centres not stated) (Ac-IEALI[ξhCys]AAQ[ξhCys]QQRKNEEALREL-NH2; linker 6-10 via mXylylene) it is 22 nM.
With H-EMTWEEWEKKIEEYTKKIEEILK-OH, the EC50 was determined as 11 nM in test [1], 1.7 nM in test [2], 5.3 nM in test [3] and 11 nM in test [4].
As for `CC[C@H](C)[C@H](NC(C)=O)C(=O)N[C@@H](CCC(=O)O)C(=O)N[C@@H](CCC(=O)O)C(=O)N[C@@H](CC(C)C)C(=O)N[C@H](C(=O)NC1CCSCc2cccc(c2)CSCCC(C(=O)N[C@@H](CCC(N)=O)C(=O)N[C@@H](CCC(N)=O)C(=O)N[C@@H](CCCNC(=N)N)C(=O)N[C@@H](CCCCN)C(=O)N[C@@H](CC(N)=O)C(=O)N[C@@H](CCC(=O)O)C(=O)N[C@@H](CCC(=O)O)C(=O)N[C@@H](C)C(=O)N[C@@H](CC(C)C)C(=O)N[C@@H](CCCNC(=N)N)C(=O)N[C@@H](CCC(=O)O)C(=O)N[C@@H](CC(C)C)C(N)=O)NC(=O)[C@H](CCC(N)=O)NC(=O)[C@H](C)NC(=O)[C@H](C)NC1=O)[C@@H](C)CC` (some centres not stated) (Ac-IEELI[ξhCys]AAQ[ξhCys]QQRKNEEALREL-NH2; linker 6-10 via mXylylene), the EC50 was 7.2 nM in test [5] and 7.1 nM in test [6].
As to `CC[C@H](C)[C@H](NC(C)=O)C(=O)N[C@@H](CCC(=O)O)C(=O)N[C@H]1CSCc2cccc(c2)CSC[C@@H](C(=O)N[C@@H](C)C(=O)N[C@@H](CCC(N)=O)C(=O)N[C@@H](CCC(=O)O)C(=O)N[C@@H](CCC(N)=O)C(=O)N[C@@H](CCC(N)=O)C(=O)N[C@@H](CCC(=O)O)C(=O)N[C@@H](CCCCN)C(=O)N[C@@H](CC(N)=O)C(=O)N[C@@H](CCC(=O)O)C(=O)N[C@@H](C)C(=O)N[C@@H](C)C(=O)N[C@@H](CC(C)C)C(=O)N[C@@H](CCCNC(=N)N)C(=O)N[C@@H](CCC(=O)O)C(=O)N[C@@H](CC(C)C)C(N)=O)NC(=O)[C@H](CCCNC(=N)N)NC(=O)[C@H]([C@@H](C)CC)NC(=O)[C@H](CC(C)C)NC1=O` (Ac-IECLIRCAQEQQEKNEAALREL-NH2; linker 3-7 via mXylylene), in test [1], the concentration for a half-maximal effect (EC50) is 136 nM.
